Data from US20170190671A1, “BIS(ARYL)CATECHOL DERIVATIVES AS HERBICIDES” (E I DU PONT DE NEMOURS AND COMPANY, priority 2014, published 2017).

Tests used:
Assay type in all cases: in vivo
[1] = test system: johnsongrass (Sorghum halepense); experiment: Test C preemergence; conditions: Sorghum halepense, pre-emergence, 336 h, scale 0 to 100, read-out: Plant response rating, Johnsongrass
Procedure, shortened: (§1)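 After preemergence treatment of seeds in loam-sand soil or foliar treatment at the 1- to 4-leaf stage of plants in peat/vermiculite medium, pots were kept 13-15 days in the greenhouse. Each was then scored visually, 0 meaning no effect and 100 complete control.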

[2] = test system: morningglory (Ipomoea coccinea); experiment: Test C preemergence; conditions: Ipomoea, pre-emergence, 336 h, scale 0 to 100, read-out: Plant response rating, Morningglory
Procedure, shortened: as §1

[3] = test system: pigweed (Amaranthus retroflexus); experiment: Test C preemergence; conditions: Amaranthus retroflexus, pre-emergence, 336 h, scale 0 to 100, read-out: Plant response rating, Pigweed
Procedure, shortened: as §1

[4] = test system: corn (Zea mays); experiment: Test C postemergence; conditions: Zea mays, post-emergence, 336 h, Postemergence, scale 0 to 100
Procedure, shortened: as §1

[5] = test system: large (Lg) crabgrass (Digitaria sanguinalis); experiment: Test C postemergence; conditions: Digitaria sanguinalis, post-emergence, 336 h, Postemergence, scale 0 to 100, read-out: Plant response rating, Crabgrass, Large
Procedure, shortened: as §1

[6] = test system: yellow nutsedge (Cyperus esculentus); experiment: Test C postemergence; conditions: Cyperus, post-emergence, 336 h, Postemergence, scale 0 to 100, read-out: Plant response rating, Nutsedge, Yellow
Procedure, shortened: as §1

[7] = test system: johnsongrass (Sorghum halepense); experiment: Test C postemergence; conditions: Sorghum halepense, post-emergence, 336 h, Postemergence, scale 0 to 100, read-out: Plant response rating, Johnsongrass
Procedure, shortened: as §1

[8] = test system: velvetleaf (Abutilon theophrasti); experiment: Test C postemergence; conditions: Abutilon theophrasti, post-emergence, Postemergence, scale 0 to 100, read-out: Plant response rating, Velvetleaf
Procedure, shortened: as §1

[9] = test system: soybean (Glycine max); experiment: Test C postemergence; conditions: Glycine max, post-emergence, Postemergence, scale 0 to 100, read-out: Plant response rating, Soybean
Procedure, shortened: as §1

[10] = test system: kochia (Kochia scoparia); experiment: Test C postemergence; conditions: Bassia scoparia, post-emergence, Postemergence, scale 0 to 100, read-out: Plant response rating, Kochia
Procedure, shortened: as §1

[11] = test system: blackgrass (Alopecurus myosuroides); experiment: Test C postemergence; conditions: Alopecurus myosuroides, post-emergence, 336 h, Postemergence, scale 0 to 100, read-out: Plant response rating, Blackgrass
Procedure, shortened: as §1

[12] = test system: winter wheat (Triticum aestivum); experiment: Test C postemergence; conditions: Triticum aestivum, post-emergence, 336 h, Postemergence, scale 0 to 100, read-out: Plant response rating, Wheat
Procedure, shortened: as §1

[13] = test system: waterhemp (common waterhemp, Amaranthus rudis); experiment: Test C postemergence; conditions: Amaranthus tuberculatus, post-emergence, Postemergence, scale 0 to 100, read-out: Plant response rating, Waterhemp
Procedure, shortened: as §1

[14] = test system: oilseed rape (Brassica napus); experiment: Test C postemergence; conditions: Brassica napus, post-emergence, Postemergence, scale 0 to 100, read-out: Plant response rating, Oilseed Rape
Procedure, shortened: as §1

[15] = test system: morningglory (Ipomoea coccinea); experiment: Test C postemergence; conditions: Ipomoea, post-emergence, 336 h, Postemergence, scale 0 to 100, read-out: Plant response rating, Morningglory
Procedure, shortened: as §1

[16] = test system: barnyardgrass (Echinochloa crus-galli); experiment: Test C postemergence; conditions: Echinochloa crus-galli, post-emergence, Postemergence, scale 0 to 100, read-out: Plant response rating, Barnyardgrass
Procedure, shortened: as §1

[17] = test system: giant foxtail (Setaria faberii); experiment: Test C postemergence; conditions: Setaria faberi, post-emergence, 336 h, Postemergence, scale 0 to 100, read-out: Plant response rating, Foxtail, Giant
Procedure, shortened: as §1

[18] = test system: galium (catchweed bedstraw, Galium aparine); experiment: Test C postemergence; conditions: Galium, post-emergence, 336 h, Postemergence, scale 0 to 100, read-out: Plant response rating, Galium
Procedure, shortened: as §1

[19] = test system: ragweed (common ragweed, Ambrosia elatior); experiment: Test C postemergence; conditions: Ambrosia artemisiifolia, post-emergence, 336 h, Postemergence, scale 0 to 100, read-out: Plant response rating, Ragweed
Procedure, shortened: as §1

[20] = test system: lambsquarters (Chenopodium album); experiment: Test C postemergence; conditions: Chenopodium album, post-emergence, 336 h, Postemergence, scale 0 to 100, read-out: Plant response rating, Lambsquarters
Procedure, shortened: as §1

[21] = test system: pigweed (Amaranthus retroflexus); experiment: Test C postemergence; conditions: Amaranthus retroflexus, post-emergence, 336 h, Postemergence, scale 0 to 100, read-out: Plant response rating, Pigweed
Procedure, shortened: as §1

[22] = test system: chickweed (common chickweed, Stellaria media); experiment: Test C postemergence; conditions: Stellaria media, post-emergence, Postemergence, scale 0 to 100, read-out: Plant response rating, Chickweed
Procedure, shortened: as §1

FC(F)c1cccc(Oc2ncc(Cl)cn2)c1Oc1ncc(Cl)cn1 [Compound 46, 2,2′-[[3-(difluoromethyl)-1,2-phenylene]bis(oxy)]bis[5-chloropyrimidine]]
pest or weed control at 31 g/ha ([1]; 31 g ai/ha, preemergence): 40% | pest or weed control at 62 g/ha ([1]; 62 g ai/ha, preemergence): 75% | pest or weed control at 125 g/ha ([1]; 125 g ai/ha, preemergence): 100% | pest or weed control at 16 g/ha ([1]; Preemergence, 16 g ai/ha): 5% | pest or weed control at 31 g/ha ([2]; 31 g ai/ha, preemergence): 90% | pest or weed control at 62 g/ha ([2]; 62 g ai/ha, preemergence): 80% | pest or weed control at 125 g/ha ([2]; 125 g ai/ha, preemergence): 100% | pest or weed control at 16 g/ha ([2]; Preemergence, 16 g ai/ha): 20% | pest or weed control at 31 g/ha ([3]; 31 g ai/ha, preemergence): 100% | pest or weed control at 62 g/ha ([3]; 62 g ai/ha, preemergence): 100% | pest or weed control at 125 g/ha ([3]; 125 g ai/ha, preemergence): 100% | pest or weed control at 16 g/ha ([3]; Preemergence, 16 g ai/ha): 20% | Corn plant response rating (crop injury, 0 = no effect, 100 = complete kill) at 16 g/ha ([4]; 16 g ai/ha): 5% | Corn plant response rating (crop injury, 0 = no effect, 100 = complete kill) at 31 g/ha ([4]; 31 g ai/ha): 5% | Corn plant response rating (crop injury, 0 = no effect, 100 = complete kill) at 62 g/ha ([4]; 62 g ai/ha): 5% | Corn plant response rating (crop injury, 0 = no effect, 100 = complete kill) at 125 g/ha ([4]; 125 g ai/ha): 10% | pest or weed control at 16 g/ha ([5]; 16 g ai/ha): 5% | pest or weed control at 31 g/ha ([5]; 31 g ai/ha): 5% | pest or weed control at 62 g/ha ([5]; 62 g ai/ha): 10% | pest or weed control at 125 g/ha ([5]; 125 g ai/ha): 10% | pest or weed control at 31 g/ha ([6]; 31 g ai/ha): 0% | pest or weed control at 62 g/ha ([6]; 62 g ai/ha): 5% | pest or weed control at 125 g/ha ([6]; 125 g ai/ha): 5% | pest or weed control at 16 g/ha ([7]; 16 g ai/ha): 5% | pest or weed control at 31 g/ha ([7]; 31 g ai/ha): 10% | pest or weed control at 62 g/ha ([7]; 62 g ai/ha): 5% | pest or weed control at 125 g/ha ([7]; 125 g ai/ha): 5% | pest or weed control at 31 g/ha ([8]; 31 g ai/ha): 25% | pest or weed control at 62 g/ha ([8]; 62 g ai/ha): 55% | pest or weed control at 125 g/ha ([8]; 125 g ai/ha): 65% | plant injury at 31 g/ha ([9]; 31 g ai/ha): 65% | plant injury at 62 g/ha ([9]; 62 g ai/ha): 75% | plant injury at 125 g/ha ([9]; 125 g ai/ha): 80% | pest or weed control at 16 g/ha ([10]; 16 g ai/ha): 70% | pest or weed control at 31 g/ha ([10]; 31 g ai/ha): 80% | pest or weed control at 62 g/ha ([10]; 62 g ai/ha): 95% | pest or weed control at 125 g/ha ([10]; 125 g ai/ha): 100% | pest or weed control at 16 g/ha ([11]; 16 g ai/ha): 0% | pest or weed control at 31 g/ha ([11]; 31 g ai/ha): 0% | pest or weed control at 62 g/ha ([11]; 62 g ai/ha): 0% | pest or weed control at 125 g/ha ([11]; 125 g ai/ha): 5% | plant injury at 31 g/ha ([12]; 31 g ai/ha): 5% | plant injury at 62 g/ha ([12]; 62 g ai/ha): 5% | plant injury at 125 g/ha ([12]; 125 g ai/ha): 10% | pest or weed control at 31 g/ha ([13]; 31 g ai/ha): 50% | pest or weed control at 62 g/ha ([13]; 62 g ai/ha): 70% | pest or weed control at 125 g/ha ([13]; 125 g ai/ha): 5% | plant injury at 31 g/ha ([14]; 31 g ai/ha): 30% | plant injury at 62 g/ha ([14]; 62 g ai/ha): 50% | plant injury at 125 g/ha ([14]; 125 g ai/ha): 65% | pest or weed control at 31 g/ha ([15]; 31 g ai/ha): 80% | pest or weed control at 62 g/ha ([15]; 62 g ai/ha): 85% | pest or weed control at 125 g/ha ([15]; 125 g ai/ha): 90% | pest or weed control at 16 g/ha ([16]; 16 g ai/ha): 0% | pest or weed control at 31 g/ha ([16]; 31 g ai/ha): 5% | pest or weed control at 62 g/ha ([16]; 62 g ai/ha): 5% | pest or weed control at 125 g/ha ([16]; 125 g ai/ha): 5% | pest or weed control at 16 g/ha ([17]; 16 g ai/ha): 35% | pest or weed control at 31 g/ha ([17]; 31 g ai/ha): 20% | pest or weed control at 62 g/ha ([17]; 62 g ai/ha): 50% | pest or weed control at 125 g/ha ([17]; 125 g ai/ha): 25% | pest or weed control at 16 g/ha ([18]; 16 g ai/ha): 60% | pest or weed control at 31 g/ha ([18]; 31 g ai/ha): 60% | pest or weed control at 62 g/ha ([18]; 62 g ai/ha): 60% | pest or weed control at 125 g/ha ([18]; 125 g ai/ha): 65% | pest or weed control at 31 g/ha ([19]; 31 g ai/ha): 50% | pest or weed control at 62 g/ha ([19]; 62 g ai/ha): 65% | pest or weed control at 125 g/ha ([19]; 125 g ai/ha): 95% | pest or weed control at 16 g/ha ([20]; 16 g ai/ha): 55% | pest or weed control at 31 g/ha ([20]; 31 g ai/ha): 70% | pest or weed control at 62 g/ha ([20]; 62 g ai/ha): 85% | pest or weed control at 125 g/ha ([20]; 125 g ai/ha): 98% | pest or weed control at 31 g/ha ([21]; 31 g ai/ha): 70% | pest or weed control at 62 g/ha ([21]; 62 g ai/ha): 70% | pest or weed control at 125 g/ha ([21]; 125 g ai/ha): 85% | pest or weed control at 16 g/ha ([22]; 16 g ai/ha): 35% | pest or weed control at 31 g/ha ([22]; 31 g ai/ha): 40% | pest or weed control at 62 g/ha ([22]; 62 g ai/ha): 60% | pest or weed control at 125 g/ha ([22]; 125 g ai/ha): 75%
